Experimental data reported in US20200215153A1, “CANCER TREATMENT AND/OR PREVENTION THROUGH REGULATION OF UBIQUITINATION” (Academia Sinica, priority 2018, published 2020).
Peptide text beside a SMILES is read from it. * marks the point of attachment. Cbz = O=C(OCc1ccccc1)*

Columns and labels:
Type in all cases: cell-based
ASB11 mRNA [1] = test: RT-qPCR analysis of ASB11 mRNA expression in HCT116 cells treated with genotoxic agents; details: p53-proficient HCT116 cells, 24 h; FIG. 5a
Protocol: (§1) FIG. 5. […] (a) RT-qPCR analysis of ASB11 mRNA expression in indicated HCT116 cells treated with indicated dosages of doxorubicin or 5-FU for 24 h. […] (b) Western blot analysis of BIK and ASB11 expression in indicated HCT116 cells treated as in (a). (c) HCT116 p53^+/+ cells stably expressing control or ASB11 shRNA were treated with 10 μM 5-FU for 24 h and then with cycloheximide for indicated time points. Cells were lysed for Western blot analysis of BIK expression and the relative amounts of BIK are indicated on the bottom. The expression levels of ASB11 and BIK in the stable lines are shown on the bottom panel. (d) Western blot analysis of IRE1α expression and RT-qPCR analysis of XBP1 mRNA splicing in indicated HCT116 cells treated with 3 μg/ml doxorubicin or 10 μM 5-FU for 24 h. (e) RT-qPCR analysis of ASB11 and XBPls mRNA expression in HCT116 cells transfected with XBP1s and/or treated with 3 μg/ml doxorubicin for 16 h. […] (f) Analysis of BIK ubiquitination in HCT116 cells transfected with indicated constructs and/or treated with 3 μg/ml doxorubicin for 16 h. Total mRNA was extracted from cells using TRIZOL reagent (Invitrogen), and equal amounts of RNA were reverse transcribed to cDNA using the iScript™ cDNA Synthesis Kit (Bio-Rad). Quantitative real-time PCR was performed using the Power SYBR Green PCR Master kit (Applied Biosystems). […]

ASB11 [2] = test: Western blot analysis of ASB11 expression in HCT116 cells; details: p53-dependent manner, FIG. 5b
Protocol: (§2) FIG. 5. […] (a) RT-qPCR analysis of ASB11 mRNA expression in indicated HCT116 cells treated with indicated dosages of doxorubicin or 5-FU for 24 h. […] (b) Western blot analysis of BIK and ASB11 expression in indicated HCT116 cells treated as in (a). (c) HCT116 p53^+/+ cells stably expressing control or ASB11 shRNA were treated with 10 μM 5-FU for 24 h and then with cycloheximide for indicated time points. Cells were lysed for Western blot analysis of BIK expression and the relative amounts of BIK are indicated on the bottom. The expression levels of ASB11 and BIK in the stable lines are shown on the bottom panel. (d) Western blot analysis of IRE1α expression and RT-qPCR analysis of XBP1 mRNA splicing in indicated HCT116 cells treated with 3 μg/ml doxorubicin or 10 μM 5-FU for 24 h. (e) RT-qPCR analysis of ASB11 and XBPls mRNA expression in HCT116 cells transfected with XBP1s and/or treated with 3 μg/ml doxorubicin for 16 h. […]
(§3) Cell extraction was performed with RIPA lysis buffer containing 50 mM Tris (pH 8.0), 0.15 M NaCl, 1% NP40, 1% sodium deoxycholate, 0.1% SDS, 1 mM PMSF, 1 µg/ml aprotinin, and 1 µg/ml leupeptin. […] Immunoprecipitation was performed and analyzed as previously described. […] The beads were washed with RIPA lysis buffer and the bound proteins were analyzed by Western blot.

BIK [3] = test: Western blot analysis of BIK expression in HCT116 cells; details: p53-dependent manner, FIG. 5b
Protocol: as §2, §3

XBP1 mRNA splicing = test: RT-qPCR analysis of XBP1 mRNA splicing in HCT116 cells; details: 3 μg/ml doxorubicin or 10 μM 5-FU, 24 h, p53-dependent manner, FIG. 5d
Protocol: as §1

ASB11 mRNA [4] = test: RT-qPCR analysis of ASB11 mRNA in H1299 cells treated with doxorubicin; details: p53-transfected H1299 cells
Protocol: Total mRNA was extracted from cells using TRIZOL reagent (Invitrogen), and equal amounts of RNA were reverse transcribed to cDNA using the iScript™ cDNA Synthesis Kit (Bio-Rad). Quantitative real-time PCR was performed using the Power SYBR Green PCR Master kit (Applied Biosystems). Amplification was performed on an ABI 7500 Fast Real-Time PCR system and GAPDH was used as an internal control.

IRE1α = test: Western blot analysis of IRE1α expression in HCT116 cells; details: 3 μg/ml doxorubicin or 10 μM 5-FU, 24 h, p53-dependent manner, FIG. 5d
Protocol: as §2, §3

[5] = system: TNBC cells (Hs578T, MDA-MB157, MDA-MB468); test: MTT assay for viability of TNBC cells transfected with BIKDD and treated with IRE1α inhibitor; details: combined with BIKDD
Protocol: FIG. 7. […] (a, c) MTT assay for the viability of indicated TNBC cells transfected with […] CMV-BIKDD (a) or VISA-BIKDD (c) and treated with 10 or 100 μM STF-083010 for 48 h. CI values are indicated. (b) Western blot analysis of cleaved PARP in indicated TNBC cells transfected with CMV-BIKDD and treated with 100 μM STF-083010 for 36 h. […] Tumor volume were measured at indicated days and plotted. Data are mean±s.d., *P<0.05; ***P<0.001 by two-way ANOVA with Turkey's post test, n=5. Tumors were surgically removed at day 49 and their sizes are shown on the right. (e) Mice orthotopically implanted with Hs578T cells and treated with VISA-BIKDD lipid nanoparticle together with STF-083010 or DMSO starting at day 28 after tumor cell implantation (see Materials and Methods). Tumor volume were measured at indicated days and plotted. Data are mean±s.d., ***P<0.001 by two-way ANOVA with Turkey's post test, n=5. Tumors were surgically removed at day 66 and their sizes are shown on the right.
MDA-MB157 and MDA-MB 468 cells were seeded at a density of 5×10^3 cells and Hs578T cells were at 2×10^3 cells in 96-well plates. Cells were transfected with BIKDD. In the next day, cells were treated with IRE1α inhibitor or DMSO for 48 h and then with 0.4 mg/ml methylthiazolyldiphenyltetrazolium bromide (MTT) (Sigma) for 2 h. Cells were dissolved in DMSO, followed by absorbance measurement at 590 nm. The combination index (CI) was calculated using the equation: CI=CA/IC50A+CB/IC50B. CA and CB represent the concentrations of the two agents for combined treatment. IC50A and IC50B are the IC50 values for each single treatment, which were determined by treating cells with various dosages of each agent followed by MTT assay. (CI<1) indicates a synergistic effect, (CI>1) corresponds to an antagonistic effect, and (CI=1) represents an additive effect.

BIK [6] = test: Western blot analysis of BIK levels in 293T cells
Protocol: FIG. 2. […] (d) Western blot analysis of BIK levels in indicated cells stably expressing control or ASB11 shRNAs.
Cell extraction was performed with RIPA lysis buffer containing 50 mM Tris (pH 8.0), 0.15 M NaCl, 1% NP40, 1% sodium deoxycholate, 0.1% SDS, 1 mM PMSF, 1 µg/ml aprotinin, and 1 µg/ml leupeptin. Western blot was performed with the standard protocol. For an efficient detection of BIK by Western blot, Tricine-SDS-PAGE was used. Western blot analyses of other proteins were performed with Glycine-SDS-PAGE. Immunoprecipitation was performed and analyzed as previously described. Briefly, cell lysates were incubated with primary antibody for overnight. The Pure Proteome Protein A/G Magnetic Beads (LSKMAGA/G10, EMD Millipore) were then added into cell lysates and incubated for 1.5 h. The beads were washed with RIPA lysis buffer and the bound proteins were analyzed by Western blot.

BIK [7] = test: Cycloheximide-chase analysis of BIK protein stability in HCT116 p53+/+ cells; details: p53-proficient HCT116 cells, 10 μM 5-FU 24 h then cycloheximide; FIG. 5c
Protocol: FIG. 5. […] (a) RT-qPCR analysis of ASB11 mRNA expression in indicated HCT116 cells treated with indicated dosages of doxorubicin or 5-FU for 24 h. […] (b) Western blot analysis of BIK and ASB11 expression in indicated HCT116 cells treated as in (a). (c) HCT116 p53^+/+ cells stably expressing control or ASB11 shRNA were treated with 10 μM 5-FU for 24 h and then with cycloheximide for indicated time points. Cells were lysed for Western blot analysis of BIK expression and the relative amounts of BIK are indicated on the bottom. The expression levels of ASB11 and BIK in the stable lines are shown on the bottom panel. (d) Western blot analysis of IRE1α expression and RT-qPCR analysis of XBP1 mRNA splicing in indicated HCT116 cells treated with 3 μg/ml doxorubicin or 10 μM 5-FU for 24 h. (e) RT-qPCR analysis of ASB11 and XBPls mRNA expression in HCT116 cells transfected with XBP1s and/or treated with 3 μg/ml doxorubicin for 16 h. […] (f) Analysis of BIK ubiquitination in HCT116 cells transfected with indicated constructs and/or treated with 3 μg/ml doxorubicin for 16 h.

ASB11 [8] = test: Western blot analysis of ASB11 protein expression under ER stress; details: multiple cell lines; 10 μg/ml tunicamycin or 200 nM thapsigargin, 16 h; FIG. 4a
Protocol: FIG. 4. ER stress stimulates BIK ubiquitination and degradation through ASB11 and p97. (a) Western blot analysis of BIK and ASB11 levels in 293T cells treated with 10 μg/ml tunicamycin or 200 nM of thapsigargin for 16 h. (b) Western blot analysis of BIK levels in 293T cells treated with 10 μg/ml tunicamycin for 12 h and then with 50 μg/ml cycloheximide for indicated time periods. The relative amounts of BIK are indicated on the bottom. (c, e) Analysis of endogenous (c) or exogenous (e) BIK ubiquitination in 293T cells (c) or 293T derivatives as in FIG. 2d (e) transfected with indicated constructs and treated with tunicamycin. (d) Western blot analysis of 293T derivatives as in FIG. 2d treated with 10 μg/ml tunicamycin for 16 h. (f) Western blot analysis of BIK levels in 293T derivatives co-treated with 10 μg/ml tunicamycin and MG132 for 16 h. (g) Western blot analysis of BIK expression in 293T cells co-treated with tunicamycin and 10 μM CB-5083 for 16 h. […]
as §3

In the case of `COc1cccc2c1C(=O)c1c(O)c3c(c(O)c1C2=O)C[C@@](O)(C(=O)CO)C[C@@H]3O[C@H]1C[C@H](N)[C@H](O)[C@H](C)O1` [doxorubicin], the “ASB11 mRNA level” value (ASB11 mRNA [1]) is reported as “reduced”, the ASB11 protein level (ASB11 [2]) is reported as “downregulated” and the BIK protein level (BIK [3]) is reported as “upregulated”. The “XBP1 mRNA splicing” value (XBP1 mRNA splicing) was “reduced”, the “ASB11 mRNA” value (ASB11 mRNA [4]) was “downregulated” and the IRE1a level (IRE1α) was “reduced”.

For `Cc1cc(=O)oc2c(C=O)c(O)ccc12` [4μ8C, 7-Hydroxy-4-methyl-2-oxo-2H-1-benzopyran-8-carboxaldehyde], the “killing effect of BIKDD on TNBC cells on combined administration” value [5] was “enhanced”.

`CC(C)C[C@@H](C=O)NC(=O)[C@H](CC(C)C)NC(=O)[C@H](CC(C)C)NC(=O)OCc1ccccc1` [MG132] (Cbz-Leu-Leu-Leu-aldehyde) was tested, and the “effect on the decrease of BIK protein level caused by ASB11 overexpression” value (BIK [6]; 293T cells transfected with ASB11, FIG. 2b) was “reversed”.

With `O=c1[nH]cc(F)c(=O)[nH]1` [5-FU, 5-fluorouracil] the “ASB11 mRNA level” value (ASB11 mRNA [1]) was “reduced”, the ASB11 protein level (ASB11 [2]) was “downregulated” and the BIK protein stability (BIK [7]) was “increased”. For the same molecule, the BIK protein level (BIK [3]) was “upregulated”, the “XBP1 mRNA splicing” value (XBP1 mRNA splicing) was “reduced” and the IRE1a level (IRE1α) was “reduced”.

With `C/C=C(/C)C(=O)O[C@H]1C(C)=C2[C@H]([C@@H]1OC(=O)CCCCCCC)[C@@](C)(OC(C)=O)C[C@H](OC(=O)CCC)[C@@]1(O)[C@H]2OC(=O)[C@@]1(C)O` [thapsigargin] the BIK protein level (BIK [6]; multiple cell lines, 10 μg/ml tunicamycin or 200 nM thapsigargin, 16 h, FIG. 4a) was “reduced” and the ASB11 protein expression (ASB11 [8]) was “elevated”.

For `Cc1cc2c(C(N)=O)cccc2n1-c1nc2c(c(NCc3ccccc3)n1)COCC2` [CB-5083], the “effect on BIK downregulation induced by ER stress or ASB11 overexpression” value (BIK [6]; 293T cells, 10 μM CB-5083, 16 h, co-treated with tunicamycin, FIG. 4g) was “abrogated”.
